We go through 15 compounds from US8048825B2, “Haloalkylsulfonanilide derivatives or salt thereof, herbicide comprising the derivatives as active ingredient, and use of the herbicide” (Nihon Nohyaku Co., Ltd., priority 2006, dated 2011).

Format in all cases: in vivo
Assay [1] deals with Lindernia procumbens. Kind of assay: Herbicidal efficacy on paddy field weeds of pre-emergence stage (Pre), Test Example 1. The following applies: 1000 g/ha as active ingredient, examined after 21 days. As for the experimental part:
(§1) 75 cm^2 plastic pots were filled with the soil (clay loam). Seeds of Scirpus juncoides, a paddy weed, were planted, and they were covered with 75 cm^3 of soil mixed with seeds of Lindernia procumbens and then filled with water depth of 5 cm. Next day, predetermined effective dosage (1000 g/ha as an active ingredient) of formulations comprising a compound of the present invention as an active ingredient which were prepared following Formulation Examples 1 to 4 was diluted with water and applied dropwise to the surface of the water. Then, they were brought up in a greenhouse and the herbicidal effect was examined after 21 days from the treatment by comparing with the result of an untreated group according to the following criteria. In the table, “-” means that the test was not performed.
(§2) Criteria for herbicidal efficacy (growth inhibiting degree) and phytotoxicity. • 5 . . . 100% herbicidal effect, phytotoxicity. • 4 . . . 90%-99% herbicidal effect, phytotoxicity. • 3 . . . 70%-89% herbicidal effect, phytotoxicity. • 2 . . . 40%-69% herbicidal effect, phytotoxicity. • 1 . . . 1%-39% herbicidal effect, phytotoxicity. • 0 . . . 0% herbicidal effect, phytotoxicity.

Assay [2] has as its system Scirpus juncoides. The assay is described as above. The following applies: 1000 g/ha as active ingredient, examined after 21 days. As for the experimental part: as §1, §2
In assay [3] the test system is Lindernia procumbens. Kind of assay: Herbicidal effect on paddy field weeds of post-emergence stage (Post), Test Example 2. The following applies: one-leaf stage, 1000 g/ha as active ingredient, examined after 21 days.
Description: as §2
(§3) 75 cm^2 plastic pots were filled with the soil (clay loam). Seeds of Scirpus juncoides and Echinochloa crus-galli, paddy weeds, were planted, and they were covered with 75 cm^3 of soil mixed with seeds of Lindernia procumbens and then filled with water depth of 5 cm and they were brought up in a greenhouse. When the test plants were at one-leaf stage, predetermined effective dosage (1000 g/ha as an active ingredient) of formulations comprising a compound of the present invention as an active ingredient was applied to the pot water. Then, they were brought up in a greenhouse and the herbicidal efficacy was examined after 21 days from the treatment by comparing with the result of an untreated group according to the criteria of Test Example 1. In the table, “-” means that the test was not performed.

Assay [4] relates to Scirpus juncoides. The assay is described as above. The following applies: one-leaf stage, 1000 g/ha as active ingredient, examined after 21 days.
Description: as §2, §3

Consider `CC1(c2c(F)cccc2F)CCN(Cc2ccccc2NS(=O)(=O)C(F)(F)F)C(=O)O1` (racemic) [Compound 1-439], for which the “Lindernia procumbens pre (herbicidal effect)” value (from here on “Lindernia procumbens pre”) in assay [1] is reported as 5 (100% herbicidal effect, phytotoxicity). For the same compound, in assay [2], the “Scirpus juncoides pre (herbicidal effect)” value (“Scirpus juncoides pre” for short) is reported as 5 (100% herbicidal effect, phytotoxicity). In addition, the “Lindernia procumbens post (herbicidal effect)” value (from here on “Lindernia procumbens post”) in assay [3] is recorded as 5 (100% herbicidal effect, phytotoxicity). The “Scirpus juncoides post (herbicidal effect)” value (from here on “Scirpus juncoides post”) in assay [4] is 4 (90%-99% herbicidal effect, phytotoxicity).
Take `CCC1(C(C)C)CCN(Cc2ccccc2N(C(=O)OCC(C)(C)C)S(=O)(=O)C(F)(F)F)C(=O)O1` (racemic) [Compound 1-456]: the “Lindernia procumbens pre” value in assay [1] is reported as 5 (100% herbicidal effect, phytotoxicity). In assay [2], the “Scirpus juncoides pre” value is on record as 5 (100% herbicidal effect, phytotoxicity). Further, in assay [3], the “Lindernia procumbens post” value is reported as 5 (100% herbicidal effect, phytotoxicity). Besides, the “Scirpus juncoides post” value in assay [4] is recorded as 4 (90%-99% herbicidal effect, phytotoxicity).
For `CC1(Cc2ccccc2F)CCN(Cc2ccccc2NS(=O)(=O)C(F)(F)F)C(=O)O1` (racemic) [Compound 1-461], the “Lindernia procumbens pre” value in assay [1] is recorded as 5 (100% herbicidal effect, phytotoxicity). In assay [2], the “Scirpus juncoides pre” value is on record as 5 (100% herbicidal effect, phytotoxicity). In addition, the “Lindernia procumbens post” value in assay [3] is given as 5 (100% herbicidal effect, phytotoxicity). In addition, the “Scirpus juncoides post” value in assay [4] was 4 (90%-99% herbicidal effect, phytotoxicity).
Consider `CCCOC(=O)N(c1ccccc1CN1CCC(CC)(C(F)(F)F)OC1=O)S(=O)(=O)C(F)(F)F` (stereo not drawn) [Compound 1-94], for which, in assay [1], the “Lindernia procumbens pre” value is listed as 5 (100% herbicidal effect, phytotoxicity). Further, the “Scirpus juncoides pre” value in assay [2] is given as 5 (100% herbicidal effect, phytotoxicity). Moreover, the “Lindernia procumbens post” value in assay [3] is 5 (100% herbicidal effect, phytotoxicity). Moreover, the “Scirpus juncoides post” value in assay [4] is 4 (90%-99% herbicidal effect, phytotoxicity).
`CCCCOC(=O)N(c1ccccc1CN1CCC(CC)(C(F)(F)F)OC1=O)S(=O)(=O)C(F)(F)F` (stereo not drawn) [Compound 1-95]: the “Lindernia procumbens pre” value in assay [1] is recorded as 5 (100% herbicidal effect, phytotoxicity). Further, the “Scirpus juncoides pre” value in assay [2] is 5 (100% herbicidal effect, phytotoxicity). Also, the “Lindernia procumbens post” value in assay [3] is listed as 5 (100% herbicidal effect, phytotoxicity). In assay [4], the “Scirpus juncoides post” value was 4 (90%-99% herbicidal effect, phytotoxicity).
In the case of `CCC1(CC)CCN(Cc2ccccc2N(C(=O)OCC(C)(C)C)S(=O)(=O)C(F)(F)F)C(=O)O1` [Compound 1-108], the “Lindernia procumbens pre” value in assay [1] is 4 (90%-99% herbicidal effect, phytotoxicity). In addition, the “Scirpus juncoides pre” value in assay [2] was 4 (90%-99% herbicidal effect, phytotoxicity). The “Lindernia procumbens post” value in assay [3] is 4 (90%-99% herbicidal effect, phytotoxicity). Besides, the “Scirpus juncoides post” value in assay [4] is reported as 4 (90%-99% herbicidal effect, phytotoxicity).
As to `CCC1(CC)CCN(Cc2ccccc2N(C(=O)OCC(C)C)S(=O)(=O)C(F)(F)F)C(=S)O1` [Compound 1-119], the “Lindernia procumbens pre” value in assay [1] is 4 (90%-99% herbicidal effect, phytotoxicity). Besides, the “Scirpus juncoides pre” value in assay [2] is recorded as 4 (90%-99% herbicidal effect, phytotoxicity). For the same compound, in assay [3], the “Lindernia procumbens post” value is listed as 4 (90%-99% herbicidal effect, phytotoxicity). Further, the “Scirpus juncoides post” value in assay [4] is reported as 4 (90%-99% herbicidal effect, phytotoxicity).
Consider `CCCCC(CC)COC(=O)N(c1ccccc1CN1CCC2(CCCC2)OC1=O)S(=O)(=O)C(F)(F)F` (stereo not drawn) [Compound 1-144], for which the “Lindernia procumbens pre” value in assay [1] was 4 (90%-99% herbicidal effect, phytotoxicity). Further, the “Scirpus juncoides pre” value in assay [2] is given as 4 (90%-99% herbicidal effect, phytotoxicity). Also, in assay [3], the “Lindernia procumbens post” value is 4 (90%-99% herbicidal effect, phytotoxicity). Moreover, the “Scirpus juncoides post” value in assay [4] is 4 (90%-99% herbicidal effect, phytotoxicity).
In the case of `CC(C)(C)COC(=O)N(c1ccccc1CN1CCC(C2CC2)(C2CC2)OC1=O)S(=O)(=O)C(F)(F)F` [Compound 1-155], the “Lindernia procumbens pre” value in assay [1] is recorded as 4 (90%-99% herbicidal effect, phytotoxicity). Further, the “Scirpus juncoides pre” value in assay [2] is listed as 4 (90%-99% herbicidal effect, phytotoxicity). For the same compound, the “Lindernia procumbens post” value in assay [3] is on record as 4 (90%-99% herbicidal effect, phytotoxicity). In addition, in assay [4], the “Scirpus juncoides post” value is 4 (90%-99% herbicidal effect, phytotoxicity).
Regarding `CC1(c2ccccc2)CCN(Cc2ccccc2NS(=O)(=O)C(F)(F)F)C(=O)O1` (stereo not drawn) [Compound 1-160], the “Lindernia procumbens pre” value in assay [1] is on record as 4 (90%-99% herbicidal effect, phytotoxicity). In addition, the “Scirpus juncoides pre” value in assay [2] was 4 (90%-99% herbicidal effect, phytotoxicity). For the same compound, in assay [3], the “Lindernia procumbens post” value was 4 (90%-99% herbicidal effect, phytotoxicity). Further, in assay [4], the “Scirpus juncoides post” value is given as 4 (90%-99% herbicidal effect, phytotoxicity).
As for `CCOC(=O)N(c1ccccc1CN1CCC(C)(c2ccccc2)OC1=O)S(=O)(=O)C(F)(F)F` (stereo not drawn) [Compound 1-162], the “Lindernia procumbens pre” value in assay [1] is given as 4 (90%-99% herbicidal effect, phytotoxicity). The “Scirpus juncoides pre” value in assay [2] is on record as 4 (90%-99% herbicidal effect, phytotoxicity). Moreover, the “Lindernia procumbens post” value in assay [3] was 4 (90%-99% herbicidal effect, phytotoxicity). Also, the “Scirpus juncoides post” value in assay [4] is reported as 4 (90%-99% herbicidal effect, phytotoxicity).
Take `CC1(c2ccccc2Cl)CCN(Cc2ccccc2NS(=O)(=O)C(F)(F)F)C(=O)O1` (stereo not drawn) [Compound 1-172]: the “Lindernia procumbens pre” value in assay [1] was 4 (90%-99% herbicidal effect, phytotoxicity). In addition, in assay [2], the “Scirpus juncoides pre” value was 4 (90%-99% herbicidal effect, phytotoxicity). Also, the “Lindernia procumbens post” value in assay [3] is given as 4 (90%-99% herbicidal effect, phytotoxicity). Further, the “Scirpus juncoides post” value in assay [4] is recorded as 4 (90%-99% herbicidal effect, phytotoxicity).
In the case of `CCOC(=O)N(c1ccccc1CN1CCC(C)(c2ccccc2Cl)OC1=O)S(=O)(=O)C(F)(F)F` (stereo not drawn) [Compound 1-174], in assay [1], the “Lindernia procumbens pre” value is on record as 4 (90%-99% herbicidal effect, phytotoxicity). Also, in assay [2], the “Scirpus juncoides pre” value was 4 (90%-99% herbicidal effect, phytotoxicity). Besides, the “Lindernia procumbens post” value in assay [3] is 4 (90%-99% herbicidal effect, phytotoxicity). Moreover, the “Scirpus juncoides post” value in assay [4] is on record as 4 (90%-99% herbicidal effect, phytotoxicity).
For the compound `CC(C)COC(=O)N(c1ccccc1CN1CCC(C)(c2ccccc2Cl)OC1=O)S(=O)(=O)C(F)(F)F` (stereo not drawn) [Compound 1-177], the “Lindernia procumbens pre” value in assay [1] is 4 (90%-99% herbicidal effect, phytotoxicity). In addition, the “Scirpus juncoides pre” value in assay [2] is 4 (90%-99% herbicidal effect, phytotoxicity). Besides, in assay [3], the “Lindernia procumbens post” value was 4 (90%-99% herbicidal effect, phytotoxicity). In addition, the “Scirpus juncoides post” value in assay [4] is listed as 4 (90%-99% herbicidal effect, phytotoxicity).
Regarding `O=C1OC(c2ccccc2)(C2CC2)CCN1Cc1ccccc1NS(=O)(=O)C(F)(F)F` (stereo not drawn) [Compound 1-183], the “Lindernia procumbens pre” value in assay [1] is listed as 4 (90%-99% herbicidal effect, phytotoxicity). Further, the “Scirpus juncoides pre” value in assay [2] was 4 (90%-99% herbicidal effect, phytotoxicity). Besides, the “Lindernia procumbens post” value in assay [3] is 4 (90%-99% herbicidal effect, phytotoxicity). In addition, the “Scirpus juncoides post” value in assay [4] is recorded as 4 (90%-99% herbicidal effect, phytotoxicity).
